Test results as given in ChEMBL document CHEMBL1614632, “Trend analysis of a database of intravenous pharmacokinetic parameters in humans for 670 drug compounds” (Drug Metab Dispos, 2008).
Bridge positions count the residues as written; N and C are the ends. Square brackets hold non-standard residues; d marks the D form. Peptide text beside a SMILES is read from it. dPhe(4-Cl) = N[C@H](Cc1ccc(Cl)cc1)C(=O)O; d2Nal = N[C@H](Cc1ccc2ccccc2c1)C(=O)O; dCit = NC(=O)NCCC[C@@H](N)C(=O)O; hArg = N=C(N)NCCCC[C@H](N)C(=O)O; d3Pal = N[C@H](Cc1cccnc1)C(=O)O; Mpa = O=C(O)CCS

Tests used:
[1] = clinical; details: human, in vivo, iv, t1/2
[2] = clinical; details: human, in vivo, iv
[3] = clinical; details: human, in vivo, iv; remark: listed apart in the source
[4] = clinical; details: human, in vivo, iv, Vdss
[5] = clinical; details: human, in vivo, iv, CL

Row | SMILES | half-life [1] [h] | MRT [2] [h] | fraction unbound [3] | Vd [4] [L/kg] | clearance [5] [mL/min/kg]
1 | CO/N=C(\C(=O)N[C@@H]1C(=O)N2C(C(=O)[O-])=C(C[n+]3cccc4c3CCC4)CS[C@H]12)c1csc(N)n1 [CEFPIROME] | 1.7 | 2.1 | 0.9 | 0.24 | 1.9
2 | CO/N=C(\C(=O)N[C@@H]1C(=O)N2C(C(=O)O)=CCS[C@H]12)c1csc(N)n1 [CEFTIZOXIME] | 1.5 | 1.6 | 0.72 | 0.2 | 2.1
3 | Nc1nc(/C(=N/O)C(=O)N[C@@H]2C(=O)N3C(C(=O)O)=C(/C=C4\CCN([C@@H]5CCNC5)C4=O)CS[C@H]23)ns1 [CEFTOBIPROLE] | 3.3 | 3 | 0.62 | 0.27 | 1.5
4 | CO/N=C(\C(=O)N[C@@H]1C(=O)N2C(C(=O)O)=C(CSc3nc(=O)c(=O)[nH]n3C)CS[C@H]12)c1csc(N)n1 [CEFTRIAXONE] | 8.6 | 5.4 | 0.052 | 0.085 | 0.26
5 | CO/N=C(\C(=O)N[C@@H]1C(=O)N2C(C(=O)O)=C(COC(N)=O)CS[C@H]12)c1ccco1 [CEFUROXIME] | 1.1 | 1.1 | 0.12 | 0.15 | 2.2
6 | O=C(Cc1cccs1)N[C@@H]1C(=O)N2C(C(=O)[O-])=C(C[n+]3ccccc3)CS[C@H]12 [CEPHALORIDINE] | 1.5 | 2.3 | 0.8 | 0.46 | 3.3
7 | CC(=O)OCC1=C(C(=O)O)N2C(=O)[C@@H](NC(=O)Cc3cccs3)[C@H]2SC1 [CEPHALOTHIN] | 0.95 | 0.65 | 0.22 | 0.07 | 1.8
8 | CC(=O)OCC1=C(C(=O)O)N2C(=O)[C@@H](NC(=O)CSc3ccncc3)[C@H]2SC1 [CEPHAPIRIN] | 1.2 | 0.8 | 0.55 | 0.13 | 2.7
9 | CC(=O)N[C@H](Cc1ccc2ccccc2c1)C(=O)N[C@H](Cc1ccc(Cl)cc1)C(=O)N[C@H](Cc1cccnc1)C(=O)N[C@@H](CO)C(=O)N[C@@H](Cc1ccc(O)cc1)C(=O)N[C@H](CCCNC(N)=O)C(=O)N[C@@H](CC(C)C)C(=O)N[C@@H](CCCNC(=N)N)C(=O)N1CCC[C@H]1C(=O)N[C@H](C)C(N)=O [CETRORELIX] (Ac-[d2Nal][dPhe(4-Cl)][d3Pal]SY[dCit]LRP[dA]-NH2) | 12 | 5.4 | 0.14 | 0.39 | 1.2
10 | CC1(C)C[C@@H]1C(=O)N/C(=C\CCCCSC[C@H](N)C(=O)O)C(=O)O [CILASTATIN] | 0.86 | 1.1 | 0.6 | 0.15 | 2.3
11 | Nc1nc(Cl)nc2c1ncn2[C@H]1C[C@H](O)[C@@H](CO)O1 [CLADRIBINE] | 16 | 9.2 | 0.79 | 7.7 | 14
12 | Cc1ncsc1CCCl [CLOMETHIAZOLE] | 4.5 | 3.3 | 0.36 | 6.6 | 33
13 | CCOC(=O)[C@@H]1C2CCC(C[C@@H]1OC(=O)c1ccccc1)N2C (stereo not given in full) [COCAETHYLENE] | 1.5 | 2 | 0.64 | 1.6 | 13
14 | CN(C)/N=N/c1[nH]cnc1C(N)=O [DACARBAZINE] | 6.2 | 7.8 | 1 | 1.2 | 2.6
15 | CN[C@H]1C(=O)N[C@@H]2Cc3ccc(cc3)Oc3cc4cc(c3O[C@@H]3O[C@H](C(=O)O)[C@@H](O)[C@H](O)[C@H]3NC(=O)CCCCCCCCC(C)C)Oc3ccc(cc3Cl)[C@@H](O)[C@@H]3NC(=O)[C@H](NC(=O)[C@@H]4NC(=O)[C@@H](NC2=O)c2cc(cc(O)c2Cl)Oc2cc1ccc2O)c1ccc(O)c(c1)-c1c(O[C@H]2O[C@H](CO)[C@@H](O)[C@H](O)[C@@H]2O)cc(O)cc1[C@@H](C(=O)NCCCN(C)C)NC3=O [DALBAVANCIN] | 170 | 230 | 0.02 | 0.14 | 0.01
16 | CCN(CC)CCS(=O)(=O)[C@@H]1CCN2C(=O)c3coc(n3)CC(=O)C[C@H](O)/C=C(C)/C=C/CNC(=O)/C=C/[C@@H](C)[C@@H](C(C)C)OC(=O)[C@@H]12 [DALFOPRISTIN] | 0.74 | 0.41 | 0.82 | 0.39 | 16
17 | O=C1CN=C(c2ccccc2Cl)c2cc(Cl)ccc2N1 [DELORAZEPAM] | 200 | 220 | 0.051 | 2.2 | 0.17
18 | CN(C)[C@@H]1C(O)=C(C(N)=O)C(=O)[C@@]2(O)C(O)=C3C(=O)c4c(O)ccc(Cl)c4[C@@H](O)[C@H]3C[C@@H]12 [DEMECLOCYCLINE] | 12 | 17 | 0.59 | 1.3 | 1.1
19 | CCN[C@@H](C)Cc1cccc(C(F)(F)F)c1 [DEXFENFLURAMINE] | 14 | 18 | 0.66 | 11 | 11

Row | SMILES | half-life [1] [h] | MRT [2] [h] | fraction unbound [3] | Vd [4] [L/kg] | clearance [5] [mL/min/kg]
20 | Cc1cccc([C@H](C)c2cnc[nH]2)c1C [DEXMEDETOMIDINE] | 2.2 | 2.5 | 0.06 | 1.6 | 11
21 | C[C@@H](CN1CC(=O)NC(=O)C1)N1CC(=O)NC(=O)C1 [DEXRAZOXANE] | 2.5 | 3 | 1 | 0.55 | 3.1
22 | O=C(O)c1cc(-c2ccc(F)cc2F)ccc1O [DIFLUNISAL] | 10 | 14 | 0.0016 | 0.097 | 0.1
23 | CCC1CN2CCC1CC2[C@@H](O)c1ccnc2ccc(OC)cc12 (stereo not given in full) [DIHYDROQUINIDINE] | 5.7 | 11 | 0.22 | 2.8 | 4.2
24 | CCC(C)(C)NCC(O)COc1ccccc1C(=O)CCc1ccccc1 (stereo not given) [DIPRAFENONE] | 1.5 | 1.9 | 0.017 | 1.2 | 11
25 | CC(C)N(CCC(C(N)=O)(c1ccccc1)c1ccccn1)C(C)C (stereo not given) [DISOPYRAMIDE] | 7 | 9.6 | 0.16 | 0.52 | 0.9
26 | CC(=O)O[C@@]12CO[C@@H]1C[C@H](O)[C@@]1(C)C(=O)[C@H](O)C3=C(C)[C@@H](OC(=O)[C@H](O)[C@@H](NC(=O)OC(C)(C)C)c4ccccc4)C[C@@](O)([C@@H](OC(=O)c4ccccc4)[C@H]21)C3(C)C.O.O.O [DOCETAXEL] | 11 | 2.5 | 0.04 | 2.1 | 14
27 | COc1cc(CC2c3c(cc(OC)c(OC)c3OC)CC[N+]2(C)CCCOC(=O)CCC(=O)OCCC[N+]2(C)CCc3cc(OC)c(OC)c(OC)c3C2Cc2cc(OC)c(OC)c(OC)c2)cc(OC)c1OC (stereo not given) [DOXACURIUM] | 1.7 | 1.4 | 0.53 | 0.22 | 2.7
28 | CCCCCc1cc(O)c2c(c1)OC(C)(C)[C@@H]1CCC(C)=C[C@@H]21 [DRONABINOL] | 33 | 46 | 0.05 | 8.9 | 3.2
29 | CC(=O)[C@H]1CC[C@H]2[C@@H]3CC[C@@H]4C[C@H](O)CC[C@]4(C)[C@H]3CC[C@]12C [ELTANOLONE] | 4.7 | 1.5 | 0.01 | 2 | 22
30 | CCn1cc(C(=O)O)c(=O)c2cc(F)c(N3CCNCC3)nc21 [ENOXACIN] | 5.1 | 6.2 | 0.8 | 2 | 5.4
31 | CSc1ccc(C(=O)c2[nH]c(=O)[nH]c2C)cc1 [ENOXIMONE] | 1 | 1 | 0.3 | 1.8 | 29
32 | CCCn1c(=O)[nH]c(=O)c2[nH]cnc21 [ENPROFYLLINE] | 1.8 | 2.6 | 0.55 | 0.63 | 4
33 | N=C(N)NCCCC[C@@H]1NC(=O)CCSSC[C@@H](C(N)=O)NC(=O)[C@@H]2CCCN2C(=O)[C@H](Cc2c[nH]c3ccccc23)NC(=O)[C@H](CC(=O)O)NC(=O)CNC1=O [EPTIFIBATIDE] ([Mpa][hArg]GDWPC-NH2; disulfide 1-7) | 4.2 | 2.4 | 0.75 | 0.17 | 1.2
34 | CN1C[C@H](C(=O)N[C@]2(C)O[C@@]3(O)[C@@H]4CCCN4C(=O)[C@H](Cc4ccccc4)N3C2=O)C=C2c3cccc4[nH]cc(c34)C[C@H]21 [ERGOTAMINE] | 2.1 | 4 | 0.02 | 3.6 | 15
35 | CC[C@@H](CO)NCCN[C@@H](CC)CO [ETHAMBUTOL] | 3.1 | 2.7 | 0.18 | 1.7 | 10
36 | C#C[C@]1(O)CC[C@H]2[C@@H]3CCc4cc(O)ccc4[C@H]3CC[C@@]21C [ETHINYL ESTRADIOL] | 9.7 | 11 | 0.014 | 4.3 | 7
37 | Cc1ccc(-c2ncc(Cl)cc2-c2ccc(S(C)(=O)=O)cc2)cn1 [ETORICOXIB] | 26 | 32 | 0.081 | 1.5 | 0.79
38 | NC(N)=Nc1nc(CSCCC(N)=NS(N)(=O)=O)cs1 [FAMOTIDINE] | 2.8 | 3 | 0.84 | 1.2 | 6.6
